In patent US6054435A, “6-O-substituted macrolides having antibacterial activity” (priority 1999, dated 2000):
Converted amounts (≈) assume the structure as drawn.

Legend:
Experiment in all cases: in vitro antibacterial activity (MIC), agar dilution
Assay type in all cases: cell-based
[1] = test system: Micrococcus luteus ATCC 4698; conditions: organism code PP; BHI agar, 35-37° C., 20 to 24 hours; unit assumed
In short: (§1)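 Endpoint: lowest concentration with no growth, slight haze or sparsely isolated colonies at the inoculum spot, judged against a compound-free BHI control. Strains were replicator-inoculated at 1:100 (1:10 for Streptococcus and other slow growers).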

[2] = test system: Streptococcus pyogenes 930; conditions: organism code MM; BHI agar, 35-37° C., 20 to 24 hours; unit assumed
In short: (§2)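 BHI agar incorporation method; twelve compound concentrations. Streptococcus and other slow growers inoculated at 1:10, other strains at 1:100. Visual MIC read-out versus growth control.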

[3] = test system: Streptococcus pyogenes EES61; conditions: organism code LL; BHI agar, 35-37° C., 20 to 24 hours; unit assumed
In short: as §2

[4] = test system: Staphylococcus aureus 1775; conditions: organism code GG; BHI agar, 35-37° C., 20 to 24 hours; unit assumed
In short: as §2

[5] = test system: Micrococcus luteus ATCC 9341; conditions: organism code OO; BHI agar, 35-37° C., 20 to 24 hours; unit assumed
In short: as §1

[6] = test system: Staphylococcus aureus CMX 642A; conditions: organism code DD; BHI agar, 35-37° C., 20 to 24 hours; unit assumed
In short: as §2

[7] = test system: Streptococcus pyogenes PIU 2548; conditions: organism code NN; BHI agar, 35-37° C., 20 to 24 hours; unit assumed
In short: as §2

[8] = test system: Streptococcus Pneumonia 5649; conditions: organism code ZZA; BHI agar, 35-37° C., 20 to 24 hours; unit assumed
In short: as §2

[9] = test system: Streptococcus Pneumonia ATCC6303; conditions: organism code XX; BHI agar, 35-37° C., 20 to 24 hours; unit assumed
In short: as §2

[10] = test system: Staphylococcus aureus A-5278; conditions: organism code CC; BHI agar, 35-37° C., 20 to 24 hours; unit assumed
In short: as §2

[11] = test system: Staphylococcus epidermidis 3519; conditions: organism code HH; BHI agar, 35-37° C., 20 to 24 hours; unit assumed
In short: as §2

Escherichia coli JUHL = conditions: organism code QQ; BHI agar, 35-37° C., 20 to 24 hours; unit assumed
In short: as §2

[12] = test system: Nocardia Asteroides ATCC9970; conditions: organism code VV; BHI agar, 35-37° C., 20 to 24 hours; unit assumed
In short: as §2

[13] = test system: Streptococcus agalactiae CMX 508; conditions: organism code KK; BHI agar, 35-37° C., 20 to 24 hours; unit assumed
In short: as §2

[14] = test system: Staphylococcus aureus NCTC10649M; conditions: organism code EE; BHI agar, 35-37° C., 20 to 24 hours; unit assumed
In short: as §2

[15] = test system: Staphylococcus aureus A5177; conditions: organism code BB; BHI agar, 35-37° C., 20 to 24 hours; unit assumed
In short: as §2

Candida albicans CCH 442 = conditions: organism code TT; BHI agar, 35-37° C., 20 to 24 hours; unit assumed
In short: as §2

[16] = test system: Streptococcus Pneumonia GYR 1171; conditions: organism code YY; BHI agar, 35-37° C., 20 to 24 hours; unit assumed
In short: as §2

[17] = test system: Staphylococcus aureus ATCC 6538P; conditions: organism code AA; BHI agar, 35-37° C., 20 to 24 hours; unit assumed
In short: as §2

[18] = test system: Streptococcus Pneumonia 5979; conditions: organism code ZZ; BHI agar, 35-37° C., 20 to 24 hours; unit assumed
In short: as §2

[19] = test system: Haemophilis Influenzae DILL AMP R; conditions: organism code WW; BHI agar, 35-37° C., 20 to 24 hours; unit assumed
In short: as §2

[20] = test system: Staphylococcus aureus CMX 553; conditions: organism code FF; BHI agar, 35-37° C., 20 to 24 hours; unit assumed
In short: as §2

[21] = test system: Mycobacterium smegmatis ATCC 114; conditions: organism code UU; BHI agar, 35-37° C., 20 to 24 hours; unit assumed
In short: as §2

Escherichia coli SS = conditions: organism code RR; BHI agar, 35-37° C., 20 to 24 hours; unit assumed
In short: as §2

[22] = test system: Enterococcus faecium ATCC 8043; conditions: organism code II; BHI agar, 35-37° C., 20 to 24 hours; unit assumed
In short: as §2

[23] = test system: Streptococcus bovis A-5169; conditions: organism code JJ; BHI agar, 35-37° C., 20 to 24 hours; unit assumed
In short: as §2

Escherichia coli DC-2 = conditions: organism code SS; BHI agar, 35-37° C., 20 to 24 hours; unit assumed
In short: as §2

Row | Compound | MIC [1] [µg/mL] | MIC [2] [µg/mL] | MIC [3] [µg/mL] | MIC [4] [µg/mL] | MIC [5] [µg/mL] | MIC [6] [µg/mL] | MIC [7] [µg/mL] | MIC [8] [µg/mL] | MIC [9] [µg/mL] | MIC [10] [µg/mL] | MIC [11] [µg/mL] | MIC (Escherichia coli JUHL) [µg/mL] | MIC [12] [µg/mL] | MIC [13] [µg/mL] | MIC [14] [µg/mL] | MIC [15] [µg/mL] | MIC (Candida albicans CCH 442) [µg/mL] | MIC [16] [µg/mL] | MIC [17] [µg/mL] | MIC [18] [µg/mL] | also measured
1 | CC[C@H]1OC(=O)[C@H](C)C(=O)[C@H](C)[C@@H](O[C@@H]2O[C@H](C)C[C@H](N(C)C)[C@H]2O)[C@](C)(OC/C=C/c2ccc(-c3cccs3)s2)C[C@@H](C)C(=O)[C@H](C)[C@H]2NC(=O)O[C@@]21C [Example 74] | 0.1 (≈ 0.125 µM) | > 100 | 0.01 (≈ 0.0125 µM) | 25 (≈ 31.1 µM) | 0.02 (≈ 0.0249 µM) | 0.1 (≈ 0.125 µM) | 0.1 (≈ 0.125 µM) | 0.25 (≈ 0.311 µM) | ≤ 0.004 | 50 (≈ 62.3 µM) | 0.1 (≈ 0.125 µM) | 100 (≈ 125 µM) | 0.1 (≈ 0.125 µM) | ≤ 0.005 | 0.2 (≈ 0.249 µM) | 0.1 (≈ 0.125 µM) | > 100 | ≤ 0.004 | 0.1 (≈ 0.125 µM) | 2 (≈ 2.49 µM) | MIC [19]: 4 µg/mL (≈ 4.98 µM); MIC [20]: 0.1 µg/mL (≈ 0.125 µM); MIC [21]: 0.39 µg/mL (≈ 0.486 µM); MIC (Escherichia coli SS): 0.39 µg/mL (≈ 0.486 µM); MIC [22]: 0.02 µg/mL (≈ 0.0249 µM); MIC [23]: 0.02 µg/mL (≈ 0.0249 µM); MIC (Escherichia coli DC-2): > 100 µg/mL
2 | CC[C@H]1OC(=O)[C@H](C)C(=O)[C@H](C)[C@@H](O[C@@H]2O[C@H](C)C[C@H](N(C)C)[C@H]2O)[C@](C)(OC/C=C/c2ccc(-c3ccccn3)s2)C[C@@H](C)C(=O)[C@H](C)[C@H]2NC(=O)O[C@@]21C [Example 75] | 0.1 (≈ 0.125 µM) | 12.5 (≈ 15.7 µM) | 0.02 (≈ 0.0251 µM) | > 100 | 0.02 (≈ 0.0251 µM) | 0.05 (≈ 0.0627 µM) | 0.1 (≈ 0.125 µM) | 0.125 (≈ 0.157 µM) | ≤ 0.004 | > 100 | 0.05 (≈ 0.0627 µM) | 50 (≈ 62.7 µM) | 0.02 (≈ 0.0251 µM) | 0.02 (≈ 0.0251 µM) | 0.05 (≈ 0.0627 µM) | 0.05 (≈ 0.0627 µM) | > 100 | ≤ 0.004 | 0.05 (≈ 0.0627 µM) | 1 (≈ 1.25 µM) | MIC [19]: 2 µg/mL (≈ 2.51 µM); MIC [20]: 0.05 µg/mL (≈ 0.0627 µM); MIC [21]: 1.56 µg/mL (≈ 1.95 µM); MIC (Escherichia coli SS): 0.39 µg/mL (≈ 0.489 µM); MIC [22]: 0.05 µg/mL (≈ 0.0627 µM); MIC [23]: 0.01 µg/mL (≈ 0.0125 µM); MIC (Escherichia coli DC-2): 25 µg/mL (≈ 31.3 µM)
3 | CC[C@H]1OC(=O)[C@H](C)C(=O)[C@H](C)[C@@H](O[C@@H]2O[C@H](C)C[C@H](N(C)C)[C@H]2O)[C@](C)(OC/C=C/c2ccc(-c3ccsc3)s2)C[C@@H](C)C(=O)[C@H](C)[C@H]2NC(=O)O[C@@]21C [Example 76] | 0.2 (≈ 0.249 µM) | 3.1 (≈ 3.86 µM) | 0.01 (≈ 0.0125 µM) | 100 (≈ 125 µM) | 0.05 (≈ 0.0623 µM) | 0.1 (≈ 0.125 µM) | 0.1 (≈ 0.125 µM) | 0.125 (≈ 0.156 µM) | ≤ 0.004 | 100 (≈ 125 µM) | 0.1 (≈ 0.125 µM) | 100 (≈ 125 µM) | 0.1 (≈ 0.125 µM) | 0.01 (≈ 0.0125 µM) | 0.05 (≈ 0.0623 µM) | 0.1 (≈ 0.125 µM) | > 100 | ≤ 0.004 | 0.1 (≈ 0.125 µM) | 16 (≈ 19.9 µM) | MIC [19]: 8 µg/mL (≈ 9.96 µM); MIC [20]: 0.1 µg/mL (≈ 0.125 µM); MIC [21]: 0.78 µg/mL (≈ 0.971 µM); MIC (Escherichia coli SS): 0.2 µg/mL (≈ 0.249 µM); MIC [22]: 0.02 µg/mL (≈ 0.0249 µM); MIC [23]: ≤ 0.005 µg/mL; MIC (Escherichia coli DC-2): 100 µg/mL (≈ 125 µM)
